The text below walks through data of US20010056085A1, “Methods of using vesicant drug formulations” (priority 1996, published 2001).

Read-outs that look alike come from different tables or passages of the source.

The nature of the assay: Half-life of ADR destruction by UVA light in the presence of test compounds (decrease in absorbance at 480 nm). It counts as physicochemical.
[1] abbreviates: UVA light, 100 μM test compound with 0.5 μM riboflavin.
Where [2] appears, read: UVA light, 100 μM test compound alone.

Regarding `CCC(=O)c1ccc(OC)cc1` [4-Methoxypropriophenone], the “Half-Life of ADR Destruction, 100 μM Test Compound and 0.5 μM Riboflavin” value came out at 30.1 min. With `Nc1ccccc1S(=O)(=O)O` [2-Amino Benzenesulfonic acid], the “Half-Life of ADR Destruction, 100 μM Test Compound and 0.5 μM Riboflavin” value under setting [1] stood at 20.1 min. The same measure, in the same setting: then `NC(C(=O)O)c1ccccc1` (stereo not shown) [Phenylglycine], with 67.8 ± 10.7 min; and `COc1ccc(C(=O)O)cc1` [4-Methoxy Benzoic Acid], with 33.5 min. For the compound `Cn1c2ccccc2c(=O)c2ccccc21` [10-Methyl-9(10H) Acridone], the “Half-Life of ADR Destruction, 100 μM Test Compound” value came to 16.7 min.

As to `COc1ccc2c(C)c(C)[nH]c2c1` [6-Methoxy-2,3-dimethyl Indole], the “Half-Life of ADR Destruction, 100 μM Test Compound” value under setting [2] came to 43.0 min. For the same compound, the “Half-Life of ADR Destruction, 100 μM Test Compound and 0.5 μM Riboflavin” value under setting [1] was 23.2 min. The like results for `O=C(c1ccccc1)c1cccs1` [2-Benzoylthiophene] were, in that order, 9.41 min and 8.85 min.

Regarding `Nc1ccc(Cc2ccccc2)cc1` [4-Aminodiphenylmethane], the “Half-Life of ADR Destruction, 100 μM Test Compound” value under setting [2] is 43.0 min. For the same compound, under setting [1], the “Half-Life of ADR Destruction, 100 μM Test Compound and 0.5 μM Riboflavin” value worked out at 5.57 min. In the same order, the values of `O=C(O)c1cc2ccccc2oc1=O` [Coumarin-3-carboxylic acid] are 23.2 min and 21.5 min. In the same order, the values of `O=C(C(=O)c1ccco1)c1ccco1` [Furil] are 43.0 min and 33.5 min. Consider `CC(=O)c1c[nH]c2ccccc12` [3-Acetylindole], for which, under setting [1], the “Half-Life of ADR Destruction, 100 μM Test Compound and 0.5 μM Riboflavin” value was found to be 33.5 min. On the same count and under the same terms, then `Nc1cc(N)cc(CO)c1` [3,5-Diamino Benzyl Alcohol], with 75.3 min; and `Cc1c[nH]c2ccccc12` [3-Methyl Indole], with 20.1 min. For the compound `COc1ccc2[nH]cc(CC(=O)O)c2c1` [5-Methoxyindole-3-acetic acid], the “Half-Life of ADR Destruction, 100 μM Test Compound” value under setting [2] was 17.7 min. Further, under setting [1], the “Half-Life of ADR Destruction, 100 μM Test Compound and 0.5 μM Riboflavin” value worked out at 3.67 min. Turning to `O=C(O)Cc1ccsc1` [Thiophene-3-acetic acid], the “Half-Life of ADR Destruction, 100 μM Test Compound” value under setting [2] was 43.0 min. Moreover, under setting [1], the “Half-Life of ADR Destruction, 100 μM Test Compound and 0.5 μM Riboflavin” value came to 33.5 min. With `O=C(O)C(=O)Cc1c[nH]c2ccccc12` [Indole-3-pyruvic acid], the “Half-Life of ADR Destruction, 100 μM Test Compound and 0.5 μM Riboflavin” value under setting [1] amounted to 6.74 min. The same measure, in the same setting: the figure for `O=C(O)C(C(=O)O)c1ccsc1` [Thiophene-3-malonic acid] is 43.0 min; for `O=C(O)c1ccc([N+](=O)[O-])cc1` [4-Nitro Benzoic Acid] it is 50.2 min. Consider `Nc1ccc(O)c(C(=O)O)c1` [3-Amino-6-Hydroxy Benzoic Acid], for which, under setting [1], the “Half-Life of ADR Destruction, 100 μM Test Compound and 0.5 μM Riboflavin” value worked out at 301.0 min. Regarding `COc1ccc(C=CC(=O)O)cc1` [4-Methoxy Cinnamic Acid], the “Half-Life of ADR Destruction, 100 μM Test Compound” value under setting [2] was found to be 75.3 min. The “Half-Life of ADR Destruction, 100 μM Test Compound and 0.5 μM Riboflavin” value under setting [1] is 5.90 min. In the same order, the values of `CC(=O)c1ccc[nH]1` [2-Acetyl Pyrrole] are 50.2 min and 30.1 min. For `c1ccc2c(c1)CCc1ccccc1N2` [Iminodibenzyl], the “Half-Life of ADR Destruction, 100 μM Test Compound and 0.5 μM Riboflavin” value under setting [1] is 23.2 min. On the same count and under the same terms, then `NC(C(=O)O)c1ccc(O)cc1` (stereo not shown) [4-Hydroxy Phenylglycine], with 24.2 ± 19.0 min.

As to `O=S(=O)(O)c1ccc2ccccc2c1` [2-Naphthalenesulfonic acid], the “Half-Life of ADR Destruction, 100 μM Test Compound” value under setting [2] was 42.0 min. For the compound `O=C(c1ccccc1)c1ccccn1` [2-Benzoylpyridine], the “Half-Life of ADR Destruction, 100 μM Test Compound” value under setting [2] was 100.3 min. Further, under setting [1], the “Half-Life of ADR Destruction, 100 μM Test Compound and 0.5 μM Riboflavin” value turned out to be 100.3 min. Turning to `Nc1cccc(CO)c1` [3-Amino Benzyl Alcohol], under setting [1], the “Half-Life of ADR Destruction, 100 μM Test Compound and 0.5 μM Riboflavin” value turned out to be 7.34 min. The same measure, in the same setting: then `COc1ccccc1C=CC=O` [2-Methoxy Cinnamaldehyde], with 50.2 min. For `c1ccc2cocc2c1` [Compound 2-Benzofuran, 2-Benzofuran], the “Half-Life of ADR Destruction, 100 μM Test Compound” value under setting [2] was found to be 23.2 min. As for 3-Amino Phenylsulfone, the “Half-Life of ADR Destruction, 100 μM Test Compound and 0.5 μM Riboflavin” value under setting [1] came out at 8.60 min.

As for `O=C(O)CCC(=O)c1cccc2ccccc12` [γ-Oxo-1-napthalenebutyric acid], under setting [2], the “Half-Life of ADR Destruction, 100 μM Test Compound” value is 10.0 min. In addition, under setting [1], the “Half-Life of ADR Destruction, 100 μM Test Compound and 0.5 μM Riboflavin” value came to 8.60 min.

As to `CN1C(C(=O)Nc2ccccn2)=C(O)c2ccccc2S1(=O)=O` [Piroxicam, reference compound], the “Half-Life of ADR Destruction, 100 μM Test Compound” value under setting [2] came to 100.3 min. Also, under setting [1], the “Half-Life of ADR Destruction, 100 μM Test Compound and 0.5 μM Riboflavin” value was determined as 10.4 min. On to `CC(C)(C)c1cc(C(C)(C)C)c(N)c(C(C)(C)C)c1` [2,4,6-Tri-tert-butyl Aniline], for which the “Half-Life of ADR Destruction, 100 μM Test Compound and 0.5 μM Riboflavin” value under setting [1] is 43.0 min. The same measure, in the same setting: then `Nc1cc(N)cc(C(=O)O)c1` [3,5-Diamino Benzoic Acid], with 75.3 min. On to `COc1ccc2[nH]c(C)c(CC(=O)O)c2c1` [5-Methoxy-2-methylindole-3-acetic acid], for which the “Half-Life of ADR Destruction, 100 μM Test Compound” value under setting [2] stood at 25.1 min. In addition, under setting [1], the “Half-Life of ADR Destruction, 100 μM Test Compound and 0.5 μM Riboflavin” value is 4.78 min.

`COc1ccc(C(C)=O)cc1` [4′-Methoxyacetophenone]: the “Half-Life of ADR Destruction, 100 μM Test Compound and 0.5 μM Riboflavin” value under setting [1] is 33.4 min. The same measure, in the same setting: the figure for `COc1ccc(C=CC=O)cc1` [4-Methoxy Cinnamaldehyde] is 50.2 min. With `CC=Cc1ccccc1O` [2-Propenyl Phenol], the “Half-Life of ADR Destruction, 100 μM Test Compound” value was determined as 50.2 min. For the compound `Nc1cccc(S(=O)(=O)c2cccc(N)c2)c1` [3,3′-Diamino Phenylsulfone], the “Half-Life of ADR Destruction, 100 μM Test Compound and 0.5 μM Riboflavin” value was found to be 3.81 min. On to `Nc1ccc(Oc2ccccc2)cc1` [4-Phenoxyaniline], for which the “Half-Life of ADR Destruction, 100 μM Test Compound” value under setting [2] was determined as 75.3 min. In addition, the “Half-Life of ADR Destruction, 100 μM Test Compound and 0.5 μM Riboflavin” value under setting [1] was found to be 15.1 min. In the same order, the values of `COc1ccccc1C(C)CO` (stereo not drawn) [2-Methoxy-β-Methyl-Phenylethyl Alcohol] are 43.0 min and 8.14 min. Take `COc1cccc(C(C)=O)c1` [3′-Methoxyacetophenone]: the “Half-Life of ADR Destruction, 100 μM Test Compound” value under setting [2] is 33.4 min. Further, the “Half-Life of ADR Destruction, 100 μM Test Compound and 0.5 μM Riboflavin” value under setting [1] stood at 33.4 min.

In the case of `CCCc1ccc(N)cc1` [4-Propyl Aniline], under setting [1], the “Half-Life of ADR Destruction, 100 μM Test Compound and 0.5 μM Riboflavin” value was found to be 7.34 min. Consider `Nc1ccccc1C(=O)c1ccccc1` [2-Aminobenzophenone], for which the “Half-Life of ADR Destruction, 100 μM Test Compound and 0.5 μM Riboflavin” value was found to be 16.7 min. Turning to `CCCc1ccccc1N` [2-Propyl Aniline], the “Half-Life of ADR Destruction, 100 μM Test Compound and 0.5 μM Riboflavin” value under setting [1] stood at 9.41 min. Regarding `CC(=O)c1ccc2ccccc2c1` [2-Acetonaphthone], under setting [2], the “Half-Life of ADR Destruction, 100 μM Test Compound” value is 8.36 min. For the same compound, the “Half-Life of ADR Destruction, 100 μM Test Compound and 0.5 μM Riboflavin” value under setting [1] is 7.92 min. Consider `CC(C)(C)c1ccc(N)cc1` [4-tert-Butyl Aniline], for which, under setting [1], the “Half-Life of ADR Destruction, 100 μM Test Compound and 0.5 μM Riboflavin” value was determined as 27.4 min. As to `O=c1c2ccccc2oc2ncccc12` [1-Azaxanthrone], the “Half-Life of ADR Destruction, 100 μM Test Compound” value under setting [2] is 2.87 min. In addition, under setting [1], the “Half-Life of ADR Destruction, 100 μM Test Compound and 0.5 μM Riboflavin” value is 2.60 min.

With `COc1ccc(C=CCO)cc1O` [3-Hydroxy-4-Methoxy Cinnamyl Alcohol], the “Half-Life of ADR Destruction, 100 μM Test Compound” value under setting [2] was determined as 50.2 min. In addition, the “Half-Life of ADR Destruction, 100 μM Test Compound and 0.5 μM Riboflavin” value under setting [1] turned out to be 50.2 min. As for `COc1cc(C=CC(=O)O)cc(OC)c1O` [3,5-Dimethoxy-4-Hydroxy Cinnamic Acid], the “Half-Life of ADR Destruction, 100 μM Test Compound” value under setting [2] stood at 75.3 min. Moreover, the “Half-Life of ADR Destruction, 100 μM Test Compound and 0.5 μM Riboflavin” value under setting [1] worked out at 50.2 min. `Nc1cccc(S(=O)(=O)O)c1` [3-Amino Benzenesulfonic acid]: the “Half-Life of ADR Destruction, 100 μM Test Compound and 0.5 μM Riboflavin” value under setting [1] amounted to 17.7 min. `NC(=O)NC(=O)c1ccccc1` [Benzoylurea]: the “Half-Life of ADR Destruction, 100 μM Test Compound” value under setting [2] stood at 43.0 min. Same read-out and setting: then `O=C(O)C=Cc1ccc(O)c(O)c1` [3,4-Dihydroxy Cinnamic Acid], with 75.3 min.

Turning to `c1ccc2occc2c1` [Benzofuran], the “Half-Life of ADR Destruction, 100 μM Test Compound and 0.5 μM Riboflavin” value under setting [1] stood at 75.3 min. In the case of `COc1ccc(CCC(=O)O)cc1` [3-(4-Methoxyphenyl) Propionic Acid], the “Half-Life of ADR Destruction, 100 μM Test Compound” value under setting [2] came to 75.3 min. Under setting [1], the “Half-Life of ADR Destruction, 100 μM Test Compound and 0.5 μM Riboflavin” value came out at 12.5 min. Consider `Cc1cc(NC(=O)C2=C(O)c3ccccc3S(=O)(=O)N2C)no1` [Isoxicam, reference compound], for which, under setting [2], the “Half-Life of ADR Destruction, 100 μM Test Compound” value came out at 75.3 min.

With `Nc1nc2c(ncn2[C@@H]2O[C@H](CO)[C@@H](O)[C@H]2O)c(=O)[nH]1` [Guanosine], under setting [2], the “Half-Life of ADR Destruction, 100 μM Test Compound” value is 75.3 min. In addition, the “Half-Life of ADR Destruction, 100 μM Test Compound and 0.5 μM Riboflavin” value under setting [1] turned out to be 14.3 min.

Take `COc1ccc(C(=O)CCC(=O)O)c2ccccc12` [Menbutone, 4-Methoxy-γ-oxo-1-naphthalenebutyric acid, reference compound]: the “Half-Life of ADR Destruction, 100 μM Test Compound” value under setting [2] is 2.21 min. Further, the “Half-Life of ADR Destruction, 100 μM Test Compound and 0.5 μM Riboflavin” value under setting [1] is 1.37 min. In the case of `Cc1ccc(CO)cc1N` [3-Amino-4-Methyl Benzyl Alcohol], under setting [1], the “Half-Life of ADR Destruction, 100 μM Test Compound and 0.5 μM Riboflavin” value was found to be 23.2 min. Same read-out and setting: the figure for `Nc1cc(C(=O)O)ccc1O` [3-Amino-4-Hydroxy Benzoic Acid] is 75.3 min.
